Values after ≈ are worked out from the molar mass of the structure shown. Where two headings read alike, the source gives them in different places.
How the values were obtained:
[1] = test system: C. glabrata; experiment: Checkerboard FIC assay in combination with fluconazole (MIC alone and in combination, FICI); assay type: cell-based, Candida glabrata; conditions: for FICI of combination resulting in fluconazole MIC of: 2 ug/mL / FICI of combination resulting in fluconazole MIC of: 4 ug/mL / FICI of combination resulting in fluconazole MIC of: 8 ug/mL: FICI calculated using a fluconazole MIC of 16 μg/mL; for FICI of combination resulting in fluconazole MIC of: 2 ug/mL (value in parenthesis) / FICI of combination resulting in fluconazole MIC of: 4 ug/mL (value in parenthesis) / FICI of combination resulting in fluconazole MIC of: 8 ug/mL (value in parenthesis): FICI using a fluconazole MIC of 128 μg/mL; for MIC: Nakaseomyces glabratus; for Concentration of Methylgene compound to synergize fluconazole MIC to 2 ug/mL / Concentration of Methylgene compound to synergize fluconazole MIC to 4 ug/mL / Concentration of Methylgene compound to synergize fluconazole MIC to 8 ug/mL: in combination with fluconazole; for Concentration of Methylgene compound to synergize fluconazole MIC to 2 ug/mL: fluconazole MIC lowered to 2 ug/mL; for Concentration of Methylgene compound to synergize fluconazole MIC to 4 ug/mL: fluconazole MIC lowered to 4 ug/mL; for Concentration of Methylgene compound to synergize fluconazole MIC to 8 ug/mL: fluconazole MIC lowered to 8 ug/mL
Description: The ability of the compounds to synergize with azoles against C. glabrata was evaluated by the checkerboard assay, a common laboratory method used to evaluate synergy, antagonism, and indifference using fractional inhibitory concentrations (FICs) and FIC indices (FICI).
The test compounds were supplied as a powder and dissolved in dimethylsulfoxide (DMSO) on the day of assay. Stock solutions were prepared at 640 ug/mL. Fluconazole was dissolved in deionized water to a stock concentration of 320 ug/mL. All test articles were in solution under these conditions.
(§1) The test organisms and reference isolates were streaked for isolation on Sabouraud agar medium (yeasts) or potato dextrose agar (fungi). Colonies were picked by swab from the medium and resuspended in the appropriate broth containing cryoprotectant. The suspensions were aliquoted into cryogenic vials and maintained at −80° C.
(§2) Prior to testing, the yeast isolates were streaked from the frozen vials onto Sabouraud dextrose agar. The plates were incubated overnight at 35° C. The fungal isolate was grown on potato dextrose agar slants and was incubated for 7-10 days at room temperature.
(§3) Both yeast and fungal isolates were tested in RPMI medium buffered with 0.165 M MOPS (3-(N-morpholino)propanesulfonic acid). The pH of the medium was adjusted to 7.0 with 1 N NaOH. The medium was sterile filtered using a 0.2 um PES (polyethersulfone) filter and stored at 4° C. until used.
FIC values were determined using a broth microdilution method (CLSI; 1, 3). To prepare the test plates, automated liquid handlers (Multidrop 384, Labsystems, Helsinki, Finland; Biomek 2000 and Biomek FX, Beckman Coulter, Fullerton Calif.) were used to conduct serial dilutions and liquid transfers.
The wells of standard 96-well microdilution plates (Costar 3795) were filled with 150 uL of DMSO in columns 2-12. Three hundred microliters of each test compound was added to each well in Column 1 of the plates. The Biomek 2000 was used to make eleven 2-fold serial dilutions in each of these “test compound mother” plates. The wells of the “fluconazole mother plates” were filled with 150 uL of sterile water in rows B-H. Row A of these plates was filled with 300 uL of the fluconazole stock solution. Serial 2-fold dilutions were then prepared from top to bottom by hand, using a multichannel pipette in rows B-G. The “daughter plates” were loaded with 180 uL of RPMI using the Multidrop 384. The Biomek FX was used to transfer 5 uL of compound solution from each well of a fluconazole mother plate to the corresponding well in all of the daughter plates in a single step. Then the Biomek FX was used to transfer 5 uL of compound solution from each well of a test compound mother plate to the corresponding well of the corresponding test compound daughter plate (already containing fluconazole at the appropriate concentrations) in a single step. Row H and Column 12 each contained serial dilutions of the test agent and fluconazole alone, respectively, for determination of the MIC.
Standardized inoculum of each organism was prepared per CLSI methods (CLSI; 1, 3). For yeast isolates, colonies were picked from the primary plate and a suspension was prepared in 0.85% saline to equal a 0.5 McFarland turbidity standard. For the fungal isolate, 1 mL of 0.85% saline was dispensed onto a potato dextrose agar slant onto which the isolate had been inoculated 7-10 days previously. Using a swab, a suspension of the fungus was made. After a short time to allow the heavy particles to settle out, a small quantity of the supernatant was dispensed into 0.85% saline and the suspension was adjusted to equal a 0.5 McFarland turbidity standard. Both yeast and fungal isolates were diluted 1:100 in RPMI and then transferred to compartments of sterile reservoirs divided by length (Beckman Coulter). The Biomek 2000 was used to inoculate the plates. […]

[2] = test system: Candida albicans; experiment: Minimal Inhibitory Concentration (MIC) assay, broth microdilution per CLSI; assay type: cell-based; conditions: Candida albicans, read-out: Minimum Inhibitory Concentrations against Yeast Isolates, Candida albicans;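 further: two read times 24 hr and 48 hr of incubation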
Description: (§4) The in vitro activities of the inventive compounds (compound(s) herein) against fungi and/or yeasts were determined with isolates Candida albicans, Candida glabrata and Candida parapsilosis. The comparator compounds included fluconazole, caspofungin and amphotericin B.
(§5) The compounds were supplied as a powder, and were dissolved in dimethylsulfoxide (DMSO) the day of assay. Stock solutions were prepared at 10 mg/mL and diluted to a starting stock concentration of 2.56 mg/mL. Amphotericin B was dissolved in DMSO to a stock concentration of 2.56 mg/mL. Fluconazole was dissolved in deionized water to a stock concentration of 2.56 mg/mL. Caspofungin was received as a stock solution of 3.2 mg/mL in DMSO and was diluted to a starting stock concentration of 2.56 mg/mL.
as §1, §2, §3
(§6) The MIC assay method followed the procedure described by the Clinical and Laboratory Standards Institute (CLSI; 1, 2, 3) and employed automated liquid handlers to conduct serial dilutions and liquid transfers. Automated liquid handlers included the Multidrop 384 (Labsystems, Helsinki, Finland), Biomek 2000 and Biomek FX (Beckman Coulter, Fullerton Calif.). The wells in columns 2-12 in standard 96-well microdilution plates (Costar 3795) were filled with 150 ul of 100% DMSO. These would become the ‘mother plates’ from which ‘daughter’ or test plates would be prepared. The compounds (300 uL at 40× the desired top concentration in the test plates) were dispensed into the appropriate well in Column 1 of the mother plates. The Biomek 2000 was used to make serial 1:1 dilutions through Column 11 in the “mother plate”. The wells of Column 12 contained no compounds and were the organism growth control wells.
(§7) The daughter plates were loaded with 185 uL per well of RPMI described above using the Multidrop 384. The daughter plates were prepared using the Biomek FX which transferred 5 μL of the compound solution from each well of a mother plate to the corresponding well of the daughter plate in a single step.
(§8) Standardized inoculum of each organism was prepared per CLSI methods. For yeast isolates, colonies were picked from the streak plate and a suspension was prepared in 0.85% saline. For the fungal isolate, 1 mL of 0.85% saline was dispensed onto the potato dextrose agar slant that had been inoculated 7-10 days previously. Using a swab, a suspension of the fungus was made. After a short time to allow the heavy particles to settle out, a small quantity of the supernatant was dispensed into 0.85% saline and the suspension adjusted to equal a 0.5 McFarland turbidity standard. Both yeast and fungal isolates were diluted 1:100 in RPMI and then transferred to compartments of sterile reservoirs divided by length (Beckman Coulter). The Biomek 2000 was used to inoculate the plates. Daughter plates were placed on the Biomek 2000 work surface reversed so that inoculation took place from low to high compound concentration. The Biomek 2000 delivered 10 μL of standardized inoculum into each well. Thus, the wells of the daughter plates ultimately contained 185 uL of RPMI, 5 uL of the compound solution, and 10 uL of inoculum. […]

[3] = test system: Candida parapsilosis; experiment: as above; assay type: cell-based; conditions: Lodderomyces parapsilosis, read-out: Minimum Inhibitory Concentrations against Yeast Isolates, Candida parapsilosis;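 further: two read times 24 hr and 48 hr of incubation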
Description: as §4, §5, §1, §2, §3, §6, §7, §8

[4] = test system: Candida glabrata; experiment: as above; assay type: cell-based; conditions: Nakaseomyces glabratus, read-out: Minimum Inhibitory Concentrations against Yeast Isolates, Candida glabrata;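 further: two read times 24 hr and 48 hr of incubation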
Description: as §4, §5, §1, §2, §3, §6, §7, §8

[5] = MIC of the example compound alone against C. glabrata in the checkerboard assay, approximately 48 hr, read-out: Methylgene MIC
[6] = test compound alone, C. glabrata, approx. 48 hr at 35° C., read-out: Compound MIC
[7] = 24 hr reading (first value of cell 24 hr/48 hr)
[8] = 48 hr reading (second value of cell 24 hr/48 hr)

Structure (SMILES): COCCOCCOCCOCCC(=O)Nc1ccc(CCCCc2ccc(CC(=O)NO)cc2)cc1 [Example 37, N-(4-(4-(4-(2-(hydroxyamino)-2-oxoethyl)phenyl)butyl)phenyl)-2,5,8,11-tetraoxatetradecan-14-amide]
- FICI of combination resulting in fluconazole MIC of: 2 ug/mL ([1]; C. glabrata): 0.375
- FICI of combination resulting in fluconazole MIC of: 4 ug/mL ([1]; C. glabrata): 0.500
- FICI of combination resulting in fluconazole MIC of: 8 ug/mL ([1]; C. glabrata): 0.625
- FICI of combination resulting in fluconazole MIC of: 2 ug/mL (value in parenthesis) ([1]; C. glabrata): 0.266
- FICI of combination resulting in fluconazole MIC of: 4 ug/mL (value in parenthesis) ([1]; C. glabrata): 0.281
- FICI of combination resulting in fluconazole MIC of: 8 ug/mL (value in parenthesis) ([1]; C. glabrata): 0.188
- MIC [1, 5]: 4 µg/mL
- MIC [1, 6]: 4 µg/mL
- Multiple of compound MIC to synergize fluconazole MIC to 2 ug/mL ([1]; concentration in combination as multiple of the compound's MIC alone, fluconazole MIC 2 ug/mL): (¼x)
- Multiple of compound MIC to synergize fluconazole MIC to 4 ug/mL ([1]; concentration in combination as multiple of the compound's MIC alone, fluconazole MIC 4 ug/mL): (¼x)
- Multiple of compound MIC to synergize fluconazole MIC to 8 ug/mL ([1]; concentration in combination as multiple of the compound's MIC alone, fluconazole MIC 8 ug/mL): (⅛x)
- Concentration of Methylgene compound to synergize fluconazole MIC to 2 ug/mL ([1]; C. glabrata): 1 µg/mL
- Concentration of Methylgene compound to synergize fluconazole MIC to 4 ug/mL ([1]; C. glabrata): 1 µg/mL
- Concentration of Methylgene compound to synergize fluconazole MIC to 8 ug/mL ([1]; C. glabrata): 0.5 µg/mL
- MIC [2, 7]: > 64 µg/mL
- MIC [2, 8]: > 64 µg/mL
- MIC [3, 7]: > 64 µg/mL
- MIC [3, 8]: > 64 µg/mL
- MIC [4, 7]: 64 µg/mL (≈ 124 µM)
- MIC [4, 8]: > 64 µg/mL

Structure (SMILES): O=C(Cc1ccc(CCCCc2ccc(C(=O)O)cc2)cc1)NO [Example 14, 4-(4-(4-(2-(hydroxyamino)-2-oxoethyl)phenyl)butyl)benzoic acid]
- FICI of combination resulting in fluconazole MIC of: 2 ug/mL ([1]; C. glabrata): > 0.563
- FICI of combination resulting in fluconazole MIC of: 4 ug/mL ([1]; C. glabrata): > 0.625
- FICI of combination resulting in fluconazole MIC of: 8 ug/mL ([1]; C. glabrata): > 0.750
- FICI of combination resulting in fluconazole MIC of: 2 ug/mL (value in parenthesis) ([1]; C. glabrata): > 0.516
- FICI of combination resulting in fluconazole MIC of: 4 ug/mL (value in parenthesis) ([1]; C. glabrata): > 0.531
- FICI of combination resulting in fluconazole MIC of: 8 ug/mL (value in parenthesis) ([1]; C. glabrata): > 0.563
- MIC [1, 5]: > 16 µg/mL
- MIC [1, 6]: > 16 µg/mL
- Concentration of Methylgene compound to synergize fluconazole MIC to 2 ug/mL ([1]; C. glabrata): 16 µg/mL
- Concentration of Methylgene compound to synergize fluconazole MIC to 4 ug/mL ([1]; C. glabrata): 16 µg/mL
- Concentration of Methylgene compound to synergize fluconazole MIC to 8 ug/mL ([1]; C. glabrata): 16 µg/mL
- MIC [2, 7]: 16 µg/mL (≈ 48.9 µM)
- MIC [2, 8]: > 64 µg/mL
- MIC [3, 7]: 32 µg/mL (≈ 97.7 µM)
- MIC [3, 8]: > 64 µg/mL
- MIC [4, 7]: 32 µg/mL (≈ 97.7 µM)
- MIC [4, 8]: 64 µg/mL (≈ 195 µM)

Structure (SMILES): CC(=O)Nc1ccccc1CCCCc1ccc(CC(=O)NO)cc1 [Example 45, 2-(4-(4-(2-acetamidophenyl)butyl)phenyl)-N-hydroxyacetamide]
- FICI of combination resulting in fluconazole MIC of: 2 ug/mL ([1]; C. glabrata): > 1.063
- FICI of combination resulting in fluconazole MIC of: 4 ug/mL ([1]; C. glabrata): > 0.625
- FICI of combination resulting in fluconazole MIC of: 8 ug/mL ([1]; C. glabrata): > 0.750
- FICI of combination resulting in fluconazole MIC of: 2 ug/mL (value in parenthesis) ([1]; C. glabrata): > 1.016
- FICI of combination resulting in fluconazole MIC of: 4 ug/mL (value in parenthesis) ([1]; C. glabrata): > 0.531
- FICI of combination resulting in fluconazole MIC of: 8 ug/mL (value in parenthesis) ([1]; C. glabrata): > 0.563
- MIC [1, 5]: > 16 µg/mL
- MIC [1, 6]: > 16 µg/mL
- Concentration of Methylgene compound to synergize fluconazole MIC to 2 ug/mL ([1]; C. glabrata): >16 µg/mL
- Concentration of Methylgene compound to synergize fluconazole MIC to 4 ug/mL ([1]; C. glabrata): 16 µg/mL
- Concentration of Methylgene compound to synergize fluconazole MIC to 8 ug/mL ([1]; C. glabrata): 16 µg/mL
- MIC [2, 7]: > 64 µg/mL
- MIC [2, 8]: > 64 µg/mL
- MIC [3, 7]: > 64 µg/mL
- MIC [3, 8]: > 64 µg/mL
- MIC [4, 7]: 32 µg/mL (≈ 94 µM)
- MIC [4, 8]: > 64 µg/mL

— patent US20140081017A1, “Histone Deacetylase Inhibitors for Enhancing Activity of Antifungal Agents” (METHYLGENE INC., priority 2012, published 2014)
